Reference: ChEMBL document CHEMBL4507262, “Data for DCP probe A-1596586” (2021)

Legend:
[1] = tested on: Tyrosine-protein kinase ABL1 (Homo sapiens), P00519 [H396P]; conditions: Compound concentration 1000.0 nM
[2] = target: Serine/threonine-protein kinase RIO3 (Homo sapiens) (UniProt O14730); conditions: Compound concentration 1000.0 nM
[3] = target: Serine/threonine-protein kinase mTOR (Homo sapiens) (UniProt P42345); conditions: Compound concentration 1000.0 nM
[4] = target: Dual specificity mitogen-activated protein kinase kinase 6 (Homo sapiens) (UniProt P52564); conditions: Compound concentration 1000.0 nM
Dual specificity mitogen-activated protein kinase kinase 6 (Homo sapiens), sequence (P52564 whole entry): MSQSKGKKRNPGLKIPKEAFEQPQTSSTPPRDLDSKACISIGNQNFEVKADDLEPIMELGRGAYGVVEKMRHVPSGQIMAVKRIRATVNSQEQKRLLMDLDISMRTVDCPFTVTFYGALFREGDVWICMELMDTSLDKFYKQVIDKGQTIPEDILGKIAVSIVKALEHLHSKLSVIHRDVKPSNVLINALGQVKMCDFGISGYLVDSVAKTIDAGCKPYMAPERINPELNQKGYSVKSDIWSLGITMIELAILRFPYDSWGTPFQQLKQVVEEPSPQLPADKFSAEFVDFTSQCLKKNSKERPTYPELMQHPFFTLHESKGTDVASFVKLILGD

[5] = target: Bone morphogenetic protein receptor type-1B (Homo sapiens) (UniProt O00238); conditions: Compound concentration 1000.0 nM
[6] = target: Activin receptor type-2A (Homo sapiens) (UniProt P27037); conditions: Compound concentration 1000.0 nM
[7] = tested on: Tyrosine-protein kinase ABL1 (Homo sapiens), P00519 [F317L]; conditions: Compound concentration 1000.0 nM
[8] = target: Tyrosine-protein kinase JAK3 (Homo sapiens) (UniProt P52333); conditions: Compound concentration 1000.0 nM
[9] = target: Serine/threonine-protein kinase Nek5 (Homo sapiens) (UniProt Q6P3R8); conditions: Compound concentration 1000.0 nM
[10] = target: Serine/threonine-protein kinase 10 (Homo sapiens) (UniProt O94804); conditions: Compound concentration 1000.0 nM
[11] = target: 1-phosphatidylinositol 3-phosphate 5-kinase (Homo sapiens) (UniProt Q9Y2I7); conditions: Compound concentration 1000.0 nM
[12] = target: Macrophage colony-stimulating factor 1 receptor (Homo sapiens) (UniProt P07333); conditions: Compound concentration 1000.0 nM
[13] = target: Tyrosine-protein kinase receptor TYRO3 (Homo sapiens) (UniProt Q06418); conditions: Compound concentration 1000.0 nM
[14] = target: Cyclin-dependent kinase 14 (Homo sapiens) (UniProt O94921); conditions: Compound concentration 1000.0 nM
[15] = target: Tyrosine-protein kinase TXK (Homo sapiens) (UniProt P42681); conditions: Compound concentration 1000.0 nM
Tyrosine-protein kinase TXK (Homo sapiens), sequence (P42681 whole entry): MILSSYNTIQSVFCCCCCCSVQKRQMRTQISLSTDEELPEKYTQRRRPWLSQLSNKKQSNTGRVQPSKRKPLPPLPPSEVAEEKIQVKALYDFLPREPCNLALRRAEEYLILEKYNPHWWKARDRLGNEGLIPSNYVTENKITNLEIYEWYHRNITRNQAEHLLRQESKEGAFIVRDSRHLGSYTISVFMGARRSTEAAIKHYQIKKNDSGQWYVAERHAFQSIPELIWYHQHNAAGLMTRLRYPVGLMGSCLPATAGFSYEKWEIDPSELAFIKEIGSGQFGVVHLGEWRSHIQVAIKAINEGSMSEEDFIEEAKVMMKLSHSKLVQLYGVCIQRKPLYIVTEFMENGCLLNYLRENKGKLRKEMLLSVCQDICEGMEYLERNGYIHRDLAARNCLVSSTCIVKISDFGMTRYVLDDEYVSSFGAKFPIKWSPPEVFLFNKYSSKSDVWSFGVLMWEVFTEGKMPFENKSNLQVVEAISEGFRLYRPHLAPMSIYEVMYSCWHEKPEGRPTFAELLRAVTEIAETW

[16] = target: Serine/threonine-protein kinase RIO1 (Homo sapiens) (UniProt Q9BRS2); conditions: Compound concentration 1000.0 nM
[17] = target: Serine/threonine-protein kinase Nek9 (Homo sapiens) (UniProt Q8TD19); conditions: Compound concentration 1000.0 nM
[18] = target: Ephrin type-A receptor 2 (Homo sapiens) (UniProt P29317); conditions: Compound concentration 1000.0 nM
[19] = target: Serine/threonine-protein kinase SIK3 (Homo sapiens) (UniProt Q9Y2K2); conditions: Compound concentration 1000.0 nM
Serine/threonine-protein kinase SIK3 (Homo sapiens), sequence (Q9Y2K2 whole entry, looked up): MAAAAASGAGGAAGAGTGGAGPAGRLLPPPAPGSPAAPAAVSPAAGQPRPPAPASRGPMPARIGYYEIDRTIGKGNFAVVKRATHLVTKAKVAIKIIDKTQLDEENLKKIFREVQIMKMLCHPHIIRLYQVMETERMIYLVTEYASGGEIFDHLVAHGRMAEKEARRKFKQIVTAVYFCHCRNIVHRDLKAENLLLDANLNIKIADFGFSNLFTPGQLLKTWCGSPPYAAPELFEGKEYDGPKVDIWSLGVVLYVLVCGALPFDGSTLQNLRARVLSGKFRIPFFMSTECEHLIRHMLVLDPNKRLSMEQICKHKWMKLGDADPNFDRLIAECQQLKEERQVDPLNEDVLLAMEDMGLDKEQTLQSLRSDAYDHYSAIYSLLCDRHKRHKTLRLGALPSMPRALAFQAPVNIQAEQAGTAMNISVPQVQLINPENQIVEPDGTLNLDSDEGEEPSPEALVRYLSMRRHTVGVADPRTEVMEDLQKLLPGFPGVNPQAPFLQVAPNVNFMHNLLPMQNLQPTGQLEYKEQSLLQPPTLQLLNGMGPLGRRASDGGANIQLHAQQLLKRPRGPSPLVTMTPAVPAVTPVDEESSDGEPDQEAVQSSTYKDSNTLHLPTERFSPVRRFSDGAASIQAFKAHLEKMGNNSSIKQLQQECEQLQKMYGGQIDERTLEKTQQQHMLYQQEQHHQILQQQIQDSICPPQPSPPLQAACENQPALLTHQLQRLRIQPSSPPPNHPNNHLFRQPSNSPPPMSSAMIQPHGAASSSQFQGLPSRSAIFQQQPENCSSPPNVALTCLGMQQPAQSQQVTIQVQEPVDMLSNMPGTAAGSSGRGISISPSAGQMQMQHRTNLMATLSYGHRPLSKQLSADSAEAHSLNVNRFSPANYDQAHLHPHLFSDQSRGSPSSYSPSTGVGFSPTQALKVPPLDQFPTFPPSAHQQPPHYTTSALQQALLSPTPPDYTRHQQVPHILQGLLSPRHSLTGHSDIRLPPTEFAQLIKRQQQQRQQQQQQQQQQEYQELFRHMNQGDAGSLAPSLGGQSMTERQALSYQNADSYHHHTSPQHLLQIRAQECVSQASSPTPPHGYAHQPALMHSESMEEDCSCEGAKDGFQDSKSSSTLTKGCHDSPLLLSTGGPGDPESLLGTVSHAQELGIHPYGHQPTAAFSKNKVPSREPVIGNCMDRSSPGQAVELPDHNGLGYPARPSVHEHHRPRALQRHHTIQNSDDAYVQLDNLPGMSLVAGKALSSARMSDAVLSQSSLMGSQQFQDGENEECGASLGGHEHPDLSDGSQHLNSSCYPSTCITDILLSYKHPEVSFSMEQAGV

[20] = target: Mitogen-activated protein kinase 15 (Homo sapiens) (UniProt Q8TD08); conditions: Compound concentration 1000.0 nM
[21] = target: Serine/threonine-protein kinase LATS2 (Homo sapiens) (UniProt Q9NRM7); conditions: Compound concentration 1000.0 nM
Serine/threonine-protein kinase LATS2 (Homo sapiens), sequence (Q9NRM7 whole entry): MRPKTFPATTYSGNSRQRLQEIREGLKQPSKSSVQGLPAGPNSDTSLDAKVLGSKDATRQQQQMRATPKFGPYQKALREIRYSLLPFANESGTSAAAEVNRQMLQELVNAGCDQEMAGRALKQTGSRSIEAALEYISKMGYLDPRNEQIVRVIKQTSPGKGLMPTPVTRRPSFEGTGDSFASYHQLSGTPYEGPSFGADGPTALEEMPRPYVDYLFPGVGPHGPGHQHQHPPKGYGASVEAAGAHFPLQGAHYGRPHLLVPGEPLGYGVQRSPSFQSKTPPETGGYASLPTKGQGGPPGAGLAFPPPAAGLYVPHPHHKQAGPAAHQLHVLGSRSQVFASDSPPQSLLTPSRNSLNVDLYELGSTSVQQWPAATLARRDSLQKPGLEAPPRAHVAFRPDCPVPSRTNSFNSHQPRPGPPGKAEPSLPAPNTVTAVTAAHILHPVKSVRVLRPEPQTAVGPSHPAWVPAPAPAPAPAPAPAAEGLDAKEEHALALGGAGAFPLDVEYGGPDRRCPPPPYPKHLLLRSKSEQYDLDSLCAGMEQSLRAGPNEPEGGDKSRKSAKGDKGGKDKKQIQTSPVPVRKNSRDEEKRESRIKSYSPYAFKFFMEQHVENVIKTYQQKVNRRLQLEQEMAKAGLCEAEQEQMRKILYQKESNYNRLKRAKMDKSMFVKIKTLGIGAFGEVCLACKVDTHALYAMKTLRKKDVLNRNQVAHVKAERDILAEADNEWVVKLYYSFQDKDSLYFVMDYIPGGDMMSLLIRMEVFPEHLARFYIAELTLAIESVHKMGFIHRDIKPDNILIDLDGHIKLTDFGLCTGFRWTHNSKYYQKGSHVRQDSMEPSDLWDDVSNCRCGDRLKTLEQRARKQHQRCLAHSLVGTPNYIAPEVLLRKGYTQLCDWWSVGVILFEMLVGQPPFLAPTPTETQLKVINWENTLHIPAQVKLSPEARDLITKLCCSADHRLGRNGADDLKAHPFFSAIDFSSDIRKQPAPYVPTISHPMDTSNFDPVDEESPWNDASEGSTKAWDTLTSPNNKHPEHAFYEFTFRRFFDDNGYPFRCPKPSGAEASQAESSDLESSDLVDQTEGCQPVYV

[22] = target: Angiopoietin-1 receptor (Homo sapiens) (UniProt Q02763); conditions: Compound concentration 1000.0 nM
[23] = target: MAP/microtubule affinity-regulating kinase 4 (Homo sapiens) (UniProt Q96L34); conditions: Compound concentration 1000.0 nM
[24] = target: Phosphorylase b kinase gamma catalytic chain, skeletal muscle/heart isoform (Homo sapiens) (UniProt Q16816); conditions: Compound concentration 1000.0 nM
[25] = target: Serine/threonine-protein kinase tousled-like 1 (Homo sapiens) (UniProt Q9UKI8); conditions: Compound concentration 1000.0 nM
[26] = target: MAO-A (amine oxidase [flavin-containing] A) (Rattus norvegicus, UniProt P21396); assay: MAO-A Eurofins-Cerep binding assay; set-up: incubation time 60 min, incubation temperature 37°C, ligand concentration 10 nM; conditions: rat cerebral cortex, probe [3H]Ro 41-1049 (10 nM), compound concentration 10 uM, read-out: % Inhibition of Control Specific Binding (Mean n=2)
[27] = tested on: Mast/stem cell growth factor receptor Kit (Homo sapiens), P10721 [V559D]; conditions: Compound concentration 1000.0 nM
Mast/stem cell growth factor receptor Kit (Homo sapiens), P10721 [V559D], sequence (P10721 whole entry V559D): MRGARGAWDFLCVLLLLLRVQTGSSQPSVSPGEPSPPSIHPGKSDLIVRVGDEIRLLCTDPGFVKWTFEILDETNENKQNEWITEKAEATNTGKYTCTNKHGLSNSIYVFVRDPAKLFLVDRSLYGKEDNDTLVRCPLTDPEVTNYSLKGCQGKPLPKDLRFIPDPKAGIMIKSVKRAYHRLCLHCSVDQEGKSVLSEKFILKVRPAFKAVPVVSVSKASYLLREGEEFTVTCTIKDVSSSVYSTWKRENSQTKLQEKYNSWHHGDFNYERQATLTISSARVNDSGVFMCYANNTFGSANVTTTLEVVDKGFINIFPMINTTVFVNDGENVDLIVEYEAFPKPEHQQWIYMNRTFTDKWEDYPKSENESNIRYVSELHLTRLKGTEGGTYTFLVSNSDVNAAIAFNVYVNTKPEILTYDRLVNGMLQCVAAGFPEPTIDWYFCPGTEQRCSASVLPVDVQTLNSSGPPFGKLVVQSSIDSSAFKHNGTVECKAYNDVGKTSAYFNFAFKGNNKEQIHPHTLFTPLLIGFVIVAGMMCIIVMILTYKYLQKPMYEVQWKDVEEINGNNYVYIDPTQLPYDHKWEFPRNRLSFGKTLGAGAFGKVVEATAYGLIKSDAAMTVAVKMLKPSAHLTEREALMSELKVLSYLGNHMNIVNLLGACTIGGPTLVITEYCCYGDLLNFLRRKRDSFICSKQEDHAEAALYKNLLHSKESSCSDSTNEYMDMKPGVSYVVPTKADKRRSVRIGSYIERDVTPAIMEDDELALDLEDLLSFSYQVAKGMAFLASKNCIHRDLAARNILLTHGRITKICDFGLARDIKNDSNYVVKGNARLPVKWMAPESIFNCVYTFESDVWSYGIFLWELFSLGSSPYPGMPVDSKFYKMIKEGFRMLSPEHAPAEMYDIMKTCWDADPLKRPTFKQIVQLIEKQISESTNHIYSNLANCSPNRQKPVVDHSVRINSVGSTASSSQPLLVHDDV

[28] = target: Tyrosine-protein kinase Blk (Homo sapiens) (UniProt P51451); conditions: Compound concentration 1000.0 nM
[29] = target: STE20/SPS1-related proline-alanine-rich protein kinase (Homo sapiens) (UniProt Q9UEW8); conditions: Compound concentration 1000.0 nM
[30] = target: Serine/threonine-protein kinase NLK (Homo sapiens) (UniProt Q9UBE8); conditions: Compound concentration 1000.0 nM
[31] = target: Serine/threonine-protein kinase DCLK2 (Homo sapiens) (UniProt Q8N568); conditions: Compound concentration 1000.0 nM
[32] = target: Serine/threonine-protein kinase 4 (Homo sapiens) (UniProt Q13043); conditions: Compound concentration 1000.0 nM
[33] = target: Mitogen-activated protein kinase kinase kinase 12 (Homo sapiens) (UniProt Q12852); conditions: Compound concentration 1000.0 nM
[34] = target: Cyclin-dependent kinase 2 (Homo sapiens) (UniProt P24941); conditions: Compound concentration 1000.0 nM
[35] = target: Ribosomal protein S6 kinase alpha-5 (Homo sapiens) (UniProt O75582); conditions: Compound concentration 1000.0 nM
Ribosomal protein S6 kinase alpha-5 (Homo sapiens), sequence (O75582 whole entry, looked up): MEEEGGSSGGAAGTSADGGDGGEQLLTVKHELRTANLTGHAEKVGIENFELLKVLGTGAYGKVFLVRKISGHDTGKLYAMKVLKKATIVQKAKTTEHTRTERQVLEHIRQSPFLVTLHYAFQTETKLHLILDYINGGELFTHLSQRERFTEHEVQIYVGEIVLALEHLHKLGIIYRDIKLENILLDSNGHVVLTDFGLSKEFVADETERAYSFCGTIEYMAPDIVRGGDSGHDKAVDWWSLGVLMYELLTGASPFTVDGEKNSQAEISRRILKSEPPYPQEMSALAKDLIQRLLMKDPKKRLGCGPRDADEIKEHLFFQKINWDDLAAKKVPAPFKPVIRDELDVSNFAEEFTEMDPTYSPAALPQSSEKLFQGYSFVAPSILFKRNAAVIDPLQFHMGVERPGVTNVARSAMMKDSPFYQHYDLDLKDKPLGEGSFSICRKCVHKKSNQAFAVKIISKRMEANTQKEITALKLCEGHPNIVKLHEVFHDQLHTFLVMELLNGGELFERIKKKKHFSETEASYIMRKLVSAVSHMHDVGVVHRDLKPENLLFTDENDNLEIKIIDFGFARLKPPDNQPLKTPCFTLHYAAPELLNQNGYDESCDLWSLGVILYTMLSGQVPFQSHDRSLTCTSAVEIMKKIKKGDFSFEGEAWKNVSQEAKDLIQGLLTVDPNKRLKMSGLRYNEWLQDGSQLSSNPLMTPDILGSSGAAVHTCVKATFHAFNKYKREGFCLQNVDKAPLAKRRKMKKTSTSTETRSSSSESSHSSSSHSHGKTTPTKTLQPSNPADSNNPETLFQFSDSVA

[36] = target: RAC-gamma serine/threonine-protein kinase (Homo sapiens) (UniProt Q9Y243); conditions: Compound concentration 1000.0 nM
[37] = target: Cyclin-dependent kinase 8 (Homo sapiens) (UniProt P49336); conditions: Compound concentration 1000.0 nM
[38] = target: Homeodomain-interacting protein kinase 3 (Homo sapiens) (UniProt Q9H422); conditions: Compound concentration 1000.0 nM
[39] = target: NUAK family SNF1-like kinase 1 (Homo sapiens) (UniProt O60285); conditions: Compound concentration 1000.0 nM
[40] = target: Mitogen-activated protein kinase kinase kinase 6 (Homo sapiens) (UniProt O95382); conditions: Compound concentration 1000.0 nM
[41] = target: Adenosine receptor A2a (Homo sapiens) (UniProt P29274); assay: A2A (h) Eurofins-Cerep binding assay; set-up: ligand concentration 6 nM; conditions: filed as agonist, Compound concentration 10.0 uM
[42] = tested on: Hepatocyte growth factor receptor (Homo sapiens), P08581 [Y1235D]; conditions: Compound concentration 1000.0 nM
[43] = target: Mitogen-activated protein kinase 7 (Homo sapiens) (UniProt Q13164); conditions: Compound concentration 1000.0 nM
[44] = target: Serine/threonine-protein kinase 32C (Homo sapiens) (UniProt Q86UX6); conditions: Compound concentration 1000.0 nM

## COc1ccc2c(c1)O[C@@H](c1ccc(OC)c(OC)c1)C[C@H]2NC(=O)C1(c2ccc3c(c2)OC(F)(F)O3)CC1 [A-1596586]
[1]
  residual activity: 86%
[2]
  residual activity: 100%
[3]
  residual activity: 100%
[4]
  residual activity: 100%
[5]
  residual activity: 71%
[6]
  residual activity: 90%
[7]
  residual activity: 94%
[8]
  residual activity: 88%
[9]
  residual activity: 71%
[10]
  residual activity: 88%
[11]
  residual activity: 100%
[12]
  residual activity: 100%
[13]
  residual activity: 97%
[14]
  residual activity: 93%
[15]
  residual activity: 97%
[16]
  residual activity: 100%
[17]
  residual activity: 100%
[18]
  residual activity: 95%
[19]
  residual activity: 82%
[20]
  residual activity: 100%
[21]
  residual activity: 100%
[22]
  residual activity: 92%
[23]
  residual activity: 92%
[24]
  residual activity: 100%
[25]
  residual activity: 84%
[26]
  inhibition at 60 min, 10 µM: -1.1%
[27]
  residual activity: 86%
[28]
  residual activity: 91%
[29]
  residual activity: 71%
[30]
  residual activity: 100%
[31]
  residual activity: 86%
[32]
  residual activity: 79%
[33]
  residual activity: 80%
[34]
  residual activity: 99%
[35]
  residual activity: 100%
[36]
  residual activity: 100%
[37]
  residual activity: 100%
[38]
  residual activity: 77%
[39]
  residual activity: 86%
[40]
  residual activity: 81%
[41]
  % Inhibition of Control Specific Binding (Mean n=2): 11.2%
[42]
  residual activity: 100%
[43]
  residual activity: 100%
[44]
  residual activity: 100%

## COc1ccc2c(c1)O[C@H](c1ccc(OC)c(OC)c1)C[C@@H]2NC(=O)C1(c2ccc3c(c2)OC(F)(F)O3)CC1 [A-1596584]
[1]
  residual activity: 98%
[2]
  residual activity: 100%
[3]
  residual activity: 100%
[4]
  residual activity: 100%
[5]
  residual activity: 100%
[6]
  residual activity: 97%
[7]
  residual activity: 97%
[8]
  residual activity: 100%
[9]
  residual activity: 100%
[10]
  residual activity: 100%
[11]
  residual activity: 89%
[12]
  residual activity: 100%
[13]
  residual activity: 97%
[14]
  residual activity: 98%
[15]
  residual activity: 95%
[16]
  residual activity: 100%
[17]
  residual activity: 100%
[18]
  residual activity: 94%
[19]
  residual activity: 95%
[20]
  residual activity: 100%
[21]
  residual activity: 89%
[22]
  residual activity: 70%
[23]
  residual activity: 88%
[24]
  residual activity: 100%
[25]
  residual activity: 100%
[26]
  inhibition at 60 min, 10 µM: 6.4%
[27]
  residual activity: 100%
[28]
  residual activity: 100%
[29]
  residual activity: 100%
[30]
  residual activity: 100%
[31]
  residual activity: 98%
[32]
  residual activity: 95%
[33]
  residual activity: 87%
[34]
  residual activity: 100%
[35]
  residual activity: 100%
[36]
  residual activity: 100%
[37]
  residual activity: 100%
[38]
  residual activity: 91%
[39]
  residual activity: 95%
[40]
  residual activity: 81%
[41]
  % Inhibition of Control Specific Binding (Mean n=2): 7.8%
[42]
  residual activity: 100%
[43]
  residual activity: 100%
[44]
  residual activity: 84%
